Where two headings read alike, the source gives them in different places.
Assays:
Type in all cases: cell-based
[1] = tested on: HIV-1 IN mutant P142A; test: single-round infectivity assay, P142A IN mutant
Method: (§1) Figure 4 Mutations in the β5-α3 loop affect the antiviral potencies of the new compounds. The EC50 values were determined using a vector that carries the IN mutant in a single round infection assay. […] Error bars represent the standard deviations of independent experiments, n = 4, performed in triplicate.
(§2) WT and mutant HIV-1 viral vectors were used in single-round infectivity assays to determine the antiviral potencies (EC50 values) of the compounds and the effects of the mutants on the EC50 values as previously described.[30],[54] Single round infectivity measurements were determined as done previously.[38]
(§3) The vector pNLNgoMIVR-ΔENV.LUC has been described previously.[26] To produce the new IN mutants used in this study, the IN open reading frame was removed from pNLNgoMIVR-ΔENV.LUC by digestion with KpnI and SalI, and the resulting fragment was inserted between the KpnI and SalI sites of pBluescript KS+. Using that construct as the wild-type template, we prepared the following HIV-1 IN mutants using the QuikChange II XL site directed mutagenesis kit (Agilent Technologies, Santa Clara, CA) protocol: N117A, N117H, P142A, P142H, P142S, Y143C, Y143H, S230R, R231G, and R231K. The following sense oligonucleotides were used with matching cognate antisense oligonucleotides (not shown) (Integrated DNA Technologies, Coralville, IA) in the mutagenesis: N117A, 5′-[…]-3′; N117H, 5′-[…]-3′; P142A, 5′-[…]-3′; P142H, 5′-[…]-3′; P142S, 5′-[…]-3′; Y143C, 5′- […]-3′; Y143H, 5′-[…]-3′; S230R, 5′- […]-3′; R231G, 5′-[…]-3′; R231K, 5′-[…]-3′.

[2] = tested on: WT HIV-1; test: single-round infectivity assay, WT HIV-1 IN vector; conditions: new compounds
Method: (§4) Figure 2 Antiviral activities of the new compounds against RAL-resistant mutants. The EC50 values were determined using a vector that carries WT HIV-1 IN and the RAL-resistant mutants in a single round infection assay. […] Error bars represent the standard deviations of independent experiments, n = 4, performed in triplicate. The graph has a maximum value of 550 nM.
as §2, §3

[3] = tested on: HIV-1 IN mutant R231K; test: single-round infectivity assay, R231K IN mutant
Method: as §1, with “5 Antiviral” for “4 Mutations in the β5-α3 loop affect the antiviral”, “compounds against IN with mutations in the […].” for “compounds.”
as §2, §3

[4] = tested on: HIV-1 IN mutant S230R; test: single-round infectivity assay, S230R IN mutant
Method: as §1, with “5 Antiviral” for “4 Mutations in the β5-α3 loop affect the antiviral”, “compounds against IN with mutations in the […].” for “compounds.”
as §2, §3

[5] = tested on: HIV-1 IN mutant P142S; test: single-round infectivity assay, P142S IN mutant
Method: as §1, §2, §3

[6] = tested on: HIV-1 IN mutant G118R; test: single-round infectivity assay, G118R IN mutant
Method: (§5) The EC50 values were determined using a vector that carries the IN mutant in a single round infection assay. […] Error bars represent the standard deviations of independent experiments, n = 4, performed in triplicate.
as §2, §3

[7] = tested on: HIV-1 IN double mutant G140S/Q148H; test: single-round infectivity assay, G140S/Q148H IN double mutant
Method: as §4, §2, §3

[8] = tested on: HIV-1 IN mutant P142H; test: single-round infectivity assay, P142H IN mutant
Method: as §5
Single round infectivity measurements were determined as done previously.[38]
as §3

[9] = tested on: HIV-1 IN mutant Y143R; test: single-round infectivity assay, Y143R IN mutant
Method: as §4, §2, §3

[10] = tested on: HIV-1 IN mutant Y143H; test: single-round infectivity assay, Y143H IN mutant
Method: as §1, §2, §3

[11] = tested on: HIV-1 IN mutant S119R; test: single-round infectivity assay, S119R IN mutant
Method: as §5, §2, §3

[12] = tested on: HIV-1 IN mutant N117H; test: single-round infectivity assay, N117H IN mutant
Method: as §5, §2, §3

[13] = tested on: HIV-1 IN mutant N117A; test: single-round infectivity assay, N117A IN mutant
Method: as §5, §2, §3

[14] = tested on: HIV-1 IN mutant Y143C; test: single-round infectivity assay, Y143C IN mutant
Method: as §1, §2, §3

[15] = tested on: HIV-1 IN mutant R231G; test: single-round infectivity assay, R231G IN mutant
Method: as §5, with “Figure 5 Antiviral potencies of the new compounds against IN with mutations in the […]. The” for “The”
as §2, §3

[16] = tested on: HIV-1 IN mutant N155H; test: single-round infectivity assay, N155H IN mutant
Method: as §4, §2, §3

[17] = fold change in EC50, IN mutant versus WT HIV-1

Nc1c(C(=O)NCc2ccc(F)cc2F)c(=O)n(O)c2ncc(CCS(=O)(=O)CCN3CCOCC3)cc12 [6v, 4-Amino-N-(2,4-difluorobenzyl)-1-hydroxy-6-(2-((2-morpholinoethyl)sulfonyl)ethyl)-2-oxo-1,2-dihydro-1,8-naphthyridine-3-carboxamide]
ratio of the EC50s (our compound relative to DTG) against P142A ([1]; EC50 compound / EC50 DTG): 145.9
EC50 ([1]; Human immunodeficiency virus 1, read-out: EC50 values P142A): 365 ± 39.4 nM
EC50 ([2]; Human immunodeficiency virus 1, read-out: EC50 values WT, vector carrying WT HIV-1 IN, single round infection, n = 4): 268 ± 68.8 nM
EC50 ([2]; read-out: EC50 values WT, vector carrying WT HIV-1 IN, single round infection, n = 4): > 250 nM
ratio of the EC50s (our compound relative to DTG) against R231K ([3]; EC50 compound / EC50 DTG): 97.9
EC50 ([3]; Human immunodeficiency virus 1, read-out: EC50 values R231K, single round infection, n = 4): 411 ± 58 nM
FC R231K [3, 17]: 1.5
ratio of the EC50s (our compound relative to DTG) against S230R ([4]; EC50 compound / EC50 DTG): 134.0
EC50 ([4]; Human immunodeficiency virus 1, read-out: EC50 values S230R): 616 ± 79.8 nM
FC S230R [4, 17]: 2.3
ratio of the EC50s (our compound relative to DTG) against P142S ([5]; EC50 compound / EC50 DTG): 156.4
EC50 ([5]; Human immunodeficiency virus 1, read-out: EC50 values P142S): 344 ± 26.9 nM
ratio of the EC50s (our compound relative to DTG) against G118R ([6]; EC50 compound / EC50 DTG): 88.3
EC50 ([6]; Human immunodeficiency virus 1, read-out: EC50 values G118R): 1150 ± 270 nM
FC G118R [6, 17]: 4.3
ratio of the EC50s (our compound relative to DTG) against G140S/Q148H ([7]; EC50 compound / EC50 DTG): 71.1
EC50 ([7]; Human immunodeficiency virus 1, read-out: EC50 values G140S/Q148H): 412 ± 120 nM
FC G140S/Q148H [7, 17]: 1.5
ratio of the EC50s (our compound relative to DTG) against P142H ([8]; EC50 compound / EC50 DTG): 159.9
EC50 ([8]; Human immunodeficiency virus 1, read-out: EC50 values P142H): 448 ± 35.8 nM
ratio of the EC50s (our compound relative to DTG) against Y143R ([9]; EC50 compound / EC50 DTG): 25.3
EC50 ([9]; Human immunodeficiency virus 1, read-out: EC50 values Y143R): 109 ± 16.2 nM
FC Y143R [9, 17]: 0.4
ratio of the EC50s (our compound relative to DTG) against Y143H ([10]; EC50 compound / EC50 DTG): 172.0
EC50 ([10]; Human immunodeficiency virus 1, read-out: EC50 values Y143H, single round infection, n = 4): 378 ± 38.9 nM
FC Y143H [10, 17]: 1.4
ratio of the EC50s (our compound relative to DTG) against S119R ([11]; EC50 compound / EC50 DTG): 213.0
EC50 ([11]; Human immunodeficiency virus 1, read-out: EC50 values S119R): 490 ± 43.1 nM
FC S119R [11, 17]: 1.8
ratio of the EC50s (our compound relative to DTG) against N117H ([12]; EC50 compound / EC50 DTG): 207.3
EC50 ([12]; Human immunodeficiency virus 1, read-out: EC50 values N117H): 497 nM
FC N117H [12, 17]: 1.9
ratio of the EC50s (our compound relative to DTG) against N117A ([13]; EC50 compound / EC50 DTG): 319.0
EC50 ([13]; Human immunodeficiency virus 1, read-out: EC50 values N117A): 160 nM
FC N117A [13, 17]: 0.6
ratio of the EC50s (our compound relative to DTG) against Y143C ([14]; EC50 compound / EC50 DTG): 308.4
EC50 ([14]; Human immunodeficiency virus 1, read-out: EC50 values Y143C, single round infection, n = 4): 432 ± 75.3 nM
FC Y143C [14, 17]: 1.6
ratio of the EC50s (our compound relative to DTG) against R231G ([15]; EC50 compound / EC50 DTG): 133.8
EC50 ([15]; Human immunodeficiency virus 1, read-out: EC50 values R231G): 187 ± 17 nM
FC R231G [15, 17]: 0.7
ratio of the EC50s (our compound relative to DTG) against N155H ([16]; EC50 compound / EC50 DTG): 38.8
EC50 ([16]; Human immunodeficiency virus 1, read-out: EC50 values N155H): 140 ± 4.9 nM
FC N155H [16, 17]: 0.5

— paper PMC8205226, “HIV-1 Integrase Inhibitors with Modifications That Affect Their Potencies against Drug Resistant Integrase Mutants” (ACS Infectious Diseases, 2021)
